Molecular target: human TYK2 (JH2domain-pseudokinase) (Homo sapiens (Human), UniProt P29597)
Experiment: TYK2 JH2 Domain Binding Assay (KINOMEscan)
Experimental: Binding constants for compounds of the present invention against the JH2 domain were determined by the following protocol for a KINOMEscan® assay (DiscoveRx). A fusion protein of a partial length construct of human TYK2 (JH2domain-pseudokinase) (amino acids G556 to D888 based on reference sequence NP_003322.3) and the DNA binding domain of NFkB was expressed in transiently transfected HEK293 cells. From these HEK 293 cells, extracts were prepared in M-PER extraction buffer (Pierce) in the presence of Protease Inhibitor Cocktail Complete (Roche) and Phosphatase Inhibitor Cocktail Set II (Merck) per manufacturers' instructions. The TYK2 (JH2domain-pseudokinase) fusion protein was labeled with a chimeric double-stranded DNA tag containing the NFkB binding site (5′-[…]-3′) fused to an amplicon for qPCR readout, which was added directly to the expression extract (the final concentration of DNA-tag in the binding reaction is 0.1 nM).
The liganded beads were blocked with excess biotin and washed with blocking buffer (SeaBlock (Pierce), 1% BSA, 0.05% Tween 20, 1 mM DTT) to remove unbound ligand and to reduce nonspecific binding.
Extracts were used directly in binding assays without any enzyme purification steps at a ≥10,000-fold overall stock dilution (final DNA-tagged enzyme concentration <0.1 nM). Extracts were loaded with DNA-tag and diluted into the binding reaction in a two step process. First extracts were diluted 1:100 in 1× binding buffer (PBS/0.05% Tween 20/10 mM DTT/0.1% BSA/2 μg/ml sonicated salmon sperm DNA) containing 10 nM DNA-tag. This dilution was allowed to equilibrate at room temperature for 15 minutes and then subsequently diluted 1:100 in 1× binding buffer. […] Kds were determined using an 11-point 3-fold compound dilution series with three DMSO control points. […] The compounds were then diluted directly into the assays such that the final concentration of DMSO was 0.9%. All reactions performed in polypropylene 384-well plates. Each was a final volume of 0.02 mL. Assays were incubated with shaking for 1 hour at room temperature. Then the beads were pelleted and washed with wash buffer (1×PBS, 0.05% Tween 20) to remove displaced kinase and test compound. […] The qPCR protocol consisted of a 10 minute hot start at 95° C., followed by 35 cycles of 95° C. for 15 seconds, 60° C. for 1 minute.
Kds were determined using an 11-point 3-fold compound dilution series with three DMSO control points. […] The compounds were then diluted directly into the assays such that the final concentration of DMSO was 0.9%. The Kds were determined using a compound top concentration of 30,000 nM. Kd measurements were performed in duplicate.
Binding constants (Kds) were calculated with a standard dose-response curve using the Hill equation: […]
The Hill Slope was set to −1.

Sequence of human TYK2 (JH2domain-pseudokinase) (P29597 556-888): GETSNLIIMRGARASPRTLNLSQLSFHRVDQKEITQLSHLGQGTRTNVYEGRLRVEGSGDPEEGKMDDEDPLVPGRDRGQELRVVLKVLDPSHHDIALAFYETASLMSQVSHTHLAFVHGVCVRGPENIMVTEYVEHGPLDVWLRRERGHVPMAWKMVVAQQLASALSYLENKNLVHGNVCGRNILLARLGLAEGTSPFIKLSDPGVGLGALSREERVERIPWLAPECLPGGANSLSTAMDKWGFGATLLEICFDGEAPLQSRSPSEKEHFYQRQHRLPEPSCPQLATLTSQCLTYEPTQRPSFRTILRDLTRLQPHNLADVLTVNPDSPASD

SMILES	Kd
CNc1cc(-c2cn([C@@H]3CCCOC3)c3ncccc23)nc2c(C(=O)N[C@H]3CC[C@@H]3OC)cnn12 [I-1268]	> 10 nM
CNc1cc(Nc2cccn([C@@H]3CCCOC3)c2=O)nc2c(C(=O)N[C@@H]3C[C@H]3OC)cnn12 [I-1269]	0.2 to 1 nM
CNc1cc(Nc2cccn([C@@H]3CCCOC3)c2=O)nc2c(C(=O)N[C@H]3C[C@@H]3OC)cnn12 [I-1270]	1 to 10 nM
CNc1cc(Nc2cccn([C@H]3C[C@@H]3OC)c2=O)nc2c(C(=O)NC3CC3)cnn12 [I-1271]	< 0.2 nM
CNc1cc(Nc2cccn([C@H]3C[C@@H]3OC)c2=O)nc2c(C(=O)N[C@@H]3C[C@@H]3F)cnn12 [I-1272]	1 to 10 nM
CNc1cc(-c2cn(C3CCOCC3)c3ncccc23)nc2c(C(=O)N[C@H]3CCCC[C@]3(C)O)cnn12 [I-1273]	> 10 nM
CNc1cc(Nc2cccn(-c3nn(C)cc3F)c2=O)nc2c(C(=O)NC3CC3)cnn12 [I-1275]	< 0.2 nM
CNc1cc(Nc2cccn(C(C)C)c2=O)nc2c(C(=O)N[C@@H]3CCCC[C@@]3(C)O)cnn12 [I-1276]	0.2 to 1 nM
CNc1cc(Nc2cccn(C(C)C)c2=O)nc2c(C(=O)N[C@H]3CCCC[C@]3(C)O)cnn12 [I-1277]	< 0.2 nM
CNc1cc(Nc2cccn([C@H]3C[C@@H]3F)c2=O)nc2c(C(=O)N[C@H]3CC[C@@H]3O)cnn12 [I-1278]	0.2 to 1 nM
CNc1cc(Nc2cccn([C@H]3C[C@@H]3F)c2=O)nc2c(C(=O)N[C@@H]3CC[C@H]3O)cnn12 [I-1279]	< 0.2 nM
CNc1cc(-c2cn(C3CC3)c3ncccc23)nc2c(C(=O)N[C@@H]3CCC[C@@]3(C)O)cnn12 [I-1280]	< 0.2 nM
CNc1cc(-c2cn(C3CC3)c3ncccc23)nc2c(C(=O)N[C@H]3CCC[C@]3(C)O)cnn12 [I-1281]	0.2 to 1 nM
CNc1cc(-c2cn([C@H]3CCCOC3)c3ncccc23)nc2c(C(=O)N[C@@H]3CC[C@H]3OC)cnn12 [I-1282]	1 to 10 nM
CNc1cc(Nc2cccn([C@H]3CC[C@H]3O)c2=O)nc2c(C(=O)N[C@@H]3C[C@@H]3F)cnn12 [I-1284]	0.2 to 1 nM
CNc1cc(Nc2cccn(-c3ccccn3)c2=O)nc2c(C(=O)N[C@H]3C[C@@H]3OC)cnn12 [I-1287]	< 0.2 nM
CNc1cc(Nc2cccn(-c3cccnc3)c2=O)nc2c(C(=O)N[C@@H]3CCC[C@@H](OC)C3)cnn12 [I-1288]	< 0.2 nM
CNc1cc(Nc2cccn(-c3ccc(C)nc3)c2=O)nc2c(C(=O)N[C@H]3CCC[C@H](OC)C3)cnn12 [I-1289]	1 to 10 nM
CNc1cc(Nc2cccn(C3CCOCC3)c2=O)nc2c(C(=O)N[C@@H]3CCC[C@@H](O)C3)cnn12 [I-1290]	> 10 nM
CNc1cc(Nc2cccn([C@H]3CC[C@@H](OC)CC3)c2=O)nc2c(C(=O)N[C@H]3CC[C@@H]3O)cnn12 [I-1291]	1 to 10 nM

SMILES	Kd
CNc1cc(Nc2cccn([C@H]3CC[C@@H](OC)CC3)c2=O)nc2c(C(=O)N[C@H]3CC[C@H]3O)cnn12 [I-1292]	< 0.2 nM
CCO[C@@H]1CC[C@H]1NC(=O)c1cnn2c(NC)cc(Nc3cccn(-c4ccccn4)c3=O)nc12 [I-1294]	< 0.2 nM
CNc1cc(Nc2cccn(C3CCOCC3)c2=O)nc2c(C(=O)N[C@@H]3CCC[C@@H](OC)C3)cnn12 [I-1297]	0.2 to 1 nM
CNc1cc(-c2cn(CCCO)c3ncc(F)cc23)nc2c(C(=O)N[C@H]3CC[C@@H]3OC)cnn12 [I-1298]	> 10 nM
CNc1cc(-c2cn(CCCO)c3ncccc23)nc2c(C(=O)N[C@H]3CC[C@@H]3OC)cnn12 [I-1300]	1 to 10 nM
CNc1cc(Nc2cccn(C(C)C)c2=O)nc2c(C(=O)N[C@@H]3COC[C@@H]3O)cnn12 [I-1301]	0.2 to 1 nM
CNc1cc(Nc2cccn(C(C)C)c2=O)nc2c(C(=O)N[C@H]3COC[C@H]3O)cnn12 [I-1302]	< 0.2 nM
CNc1cc(Nc2cccn(-c3cccc(F)c3)c2=O)nc2c(C(=O)N[C@@H]3COC[C@@H]3O)cnn12 [I-1303]	1 to 10 nM
CNc1cc(Nc2cccn(-c3cccc(F)c3)c2=O)nc2c(C(=O)N[C@H]3COC[C@H]3O)cnn12 [I-1304]	0.2 to 1 nM
CNc1cc(Nc2cccn(C3CC(F)(F)C3)c2=O)nc2c(C(=O)N[C@@H]3CC[C@@H]3O)cnn12 [I-1305]	0.2 to 1 nM
CNc1cc(Nc2cccn(C3CC(F)(F)C3)c2=O)nc2c(C(=O)N[C@H]3CC[C@H]3O)cnn12 [I-1306]	1 to 10 nM
CNc1cc(-c2cn(C3CCOCC3)c3ncccc23)nc2c(C(=O)N[C@@H]3COC[C@@H]3O)cnn12 [I-1307]	< 0.2 nM
CNc1cc(-c2cn(C3CCOCC3)c3ncccc23)nc2c(C(=O)N[C@H]3COC[C@H]3O)cnn12 [I-1308]	> 10 nM
CNc1cc(Nc2cccn3ccnc23)nc2c(C(=O)N[C@H]3COC[C@H]3O)cnn12 [I-1313]	> 10 nM
CNc1cc(Nc2cccn3ccnc23)nc2c(C(=O)N[C@H]3CCC[C@]3(C)O)cnn12 [I-1316]	1 to 10 nM
CNC(=O)c1occc1Nc1cc(NC)n2ncc(C(=O)N[C@@H]3CC[C@H]3OC)c2n1 [I-1322]	< 0.2 nM
CNc1cc(Nc2cc3cccnc3n2C2CC2)nc2c(C(=O)N[C@@H]3CC[C@H]3OC)cnn12 [I-1324]	< 0.2 nM
CNc1cc(-c2cn(C(C)C)c3ncccc23)nc2c(C(=O)N[C@@H]3CC[C@]3(C)O)cnn12 [I-1326]	< 0.2 nM
CNc1cc(-c2cn(C(C)C)c3ncccc23)nc2c(C(=O)N[C@H]3CC[C@@]3(C)O)cnn12 [I-1327]	< 0.2 nM
CNc1cc(-c2cn(C3CCOCC3)c3ncccc23)nc2c(C(=O)N[C@H]3CC[C@@H]3OC)cnn12 [I-1329]	> 10 nM

SMILES	Kd
CNc1cc(Nc2cccn([C@@H]3CCC[C@@H](OC)C3)c2=O)nc2c(C(=O)N[C@@H]3CC[C@H]3OC)cnn12 [I-1330]	< 0.2 nM
CNc1cc(Nc2cccn([C@@H]3CCN(CCF)C3)c2=O)nc2c(C(=O)N[C@H]3CC[C@@H]3OC)cnn12 [I-1332]	1 to 10 nM
CNc1cc(-c2cn(C3CC3)c3ncccc23)nc2c(C(=O)N[C@H]3CCC[C@]3(C)O)cnn12 [I-1335]	< 0.2 nM
CNc1cc(-c2cn(C3CCOCC3)c3ncccc23)nc2c(C(=O)N[C@H]3CCC[C@]3(C)O)cnn12 [I-1336]	1 to 10 nM
CNc1cc(Nc2cccn(C(C)C)c2=O)nc2c(C(=O)N[C@@H]3CCC[C@@](C)(O)C3)cnn12 [I-1337]	< 0.2 nM
CNc1cc(Nc2cccn([C@@H]3CCCC[C@@H]3O)c2=O)nc2c(C(=O)N[C@H]3CC[C@@H]3OC)cnn12 [I-1338]	0.2 to 1 nM
CNc1cc(Nc2cccn([C@@H]3CCCC[C@@H]3O)c2=O)nc2c(C(=O)N[C@@H]3CC[C@H]3OC)cnn12 [I-1339]	0.2 to 1 nM
CNc1cc(Nc2cccn3cnnc23)nc2c(C(=O)N[C@@H]3CC[C@H]3OC)cnn12 [I-1342]	< 0.2 nM
CNc1cc(Nc2cccn([C@H]3CC[C@H]3O)c2=O)nc2c(C(=O)N[C@@H]3CC[C@H]3OC)cnn12 [I-1344]	0.2 to 1 nM
CNc1cc(Nc2cccn([C@H]3CC[C@H]3O)c2=O)nc2c(C(=O)N[C@H]3CC[C@@H]3OC)cnn12 [I-1345]	< 0.2 nM
CNc1cc(Nc2cccn([C@@H]3CCCN(CCC#N)C3)c2=O)nc2c(C(=O)NC3CC3)cnn12 [I-1346, (R)-5-((1-(1-(2-cyanoethyl)piperidin-3-yl)-2-oxo-1,2-dihydropyridin-3-yl)amino)-N-cyclopropyl-7-(methylamino)pyrazolo[1,5-a]pyrimidine-3-carboxamide]	< 0.2 nM
CNc1cc(Nc2cccn([C@H]3CCCN(CCC#N)C3)c2=O)nc2c(C(=O)NC3CC3)cnn12 [I-1347, (S)-5-((1-(1-(2-cyanoethyl)piperidin-3-yl)-2-oxo-1,2-dihydropyridin-3-yl)amino)-N-cyclopropyl-7-(methylamino)pyrazolo[1,5-a]pyrimidine-3-carboxamide]	1 to 10 nM
CNc1cc(Nc2cccn(C3CCCCC3)c2=O)nc2c(C(=O)N[C@@H]3COC[C@@H]3O)cnn12 [I-1348]	< 0.2 nM
CNc1cc(Nc2cccn(C3CCCCC3)c2=O)nc2c(C(=O)N[C@H]3COC[C@H]3O)cnn12 [I-1349]	1 to 10 nM
CNc1cc(Nc2cccn([C@@H]3CC[C@@H]3O)c2=O)nc2c(C(=O)N[C@H]3CC[C@@H]3OC)cnn12 [I-1351]	< 0.2 nM
CNc1cc(-c2cn(C3CC3)c3ncccc23)nc2c(C(=O)N[C@H]3COC[C@H]3O)cnn12 [I-1356]	< 0.2 nM
CNc1cc(Nc2cccn(C3CCOCC3)c2=O)nc2c(C(=O)N[C@@H]3CC[C@H](O)C3)cnn12 [I-1357]	> 10 nM
CNc1cc(Nc2cccn([C@H]3CCC[C@@H](C#N)C3)c2=O)nc2c(C(=O)N[C@@H]3C[C@@H]3F)cnn12 [I-1360]	< 0.2 nM

Reference: patent US10508120B2, “TYK2 inhibitors and uses thereof” (Nimbus Lakshmi, Inc., priority 2017, dated 2019)
